Test results: patent US20090204336A1, “PDZ-Domain Modulators” (Forschungsverbund Berlin e. V., priority 2005, published 2009)
“Also recorded” adds a separate entry of the source.

Experiments:
PDZ-domain of Syntrophin = biological target: T1, PDZ-domain of Syntrophin (Mus musculus, UniProt Q61234); test: Kd determination by 15N-HSQC NMR titration; assay type: binding; conditions: macroscopic (apparent) Kd ± statistical standard deviation of curve adaptation; 50 μM 15N protein, pH 6.5, 300 K
T1 construct: made in house
T1 sequence (Q61234 81-164 limits assumed): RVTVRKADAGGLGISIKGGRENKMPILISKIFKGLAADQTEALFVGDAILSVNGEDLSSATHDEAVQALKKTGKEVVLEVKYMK
Protocol: (§1) The ubiquitarily 15N marked PDZ-domains of the proteins AF6 [Boisguerin, P. et al., Chem. Biol. 11:449-459 (2004)] and Syntrophin [Schultz, J. et al., Nat Struct Biol., 5(1):19-24 (1998)] were prepared as described in the publications. For the NMR assay 50 μM 15N marked protein are mixed in a buffer of 20 mM Na phosphate pH 6.5, 50 mM NaCl and 10% d6-DMSO with a 8 to 10-fold molar excess of test ligand and a 15N-HSQC NMR spectrum is recorded at a temperature of 300 K on a Bruker DRX 600 MHz NMR spectrometer. Secondly, an identical comparison spectrum of protein in absence of test ligand is recorded. The NMR spectra are processed with the aid of the software XWIN-NMR and compared with each other with the aid of the software Sparky. […] Exemplarily is shown such a comparison of spectra for the PDZ-domain of AF6 in FIG. 7A and for the PDZ-domain of Syntrophin in FIG. 7B.
(§2) For the determination of equilibrium dissociation constants (in short: Kd values), a test ligand is added step-wise in increasing concentrations to 50 μM protein solution, and for each concentration step a 15N-HSQC NMR spectrum is recorded under the same conditions as described above. The average chemical shift of a resonance, d, is calculated according to the following equation from the NMR raw data: […]
(§3) wherein ΔH is the shift in ppm units along the 1H resonance axis, and ΔN is the shift in ppm units along the 15N resonance axis. The average shift, d, is drawn as a function of the concentration of the test ligand, and a binding curve results, to which is adapted the following mathematical equation:
(§4) wherein Lo is the total concentration of ligands, Po is the total concentration of protein and Kd is the Kd value. This equation describes the law of mass action of a reaction “protein+ligand=complex”.
(§5) With the aid of a software such as e.g. “Origin 5.0”, the adaptation is optimized in a non-linear manner, thereby providing for each investigated resonance a microscopic Kd value. From the mean value of all relevant microscopic Kd values, a macroscopic Kd value is calculated. In Table 2, the macroscopic Kd values including the statistical standard deviation for the binding of some test ligands to the PDZ-domains of AF6 and of Syntrophin are shown.
(§6) The number behind the ± symbol indicates the statistical standard deviation of a mathematical curve adaptation to the chemical binding equation “protein+ligand=complex”.

PDZ-domain of AF6 = biological target: T2, PDZ-domain of AF6 (Homo sapiens, UniProt P55196); test: Kd determination by 15N-HSQC NMR titration; assay type: binding; conditions: macroscopic (apparent) Kd ± statistical standard deviation of curve adaptation; 50 μM 15N protein, pH 6.5, 300 K
T2 construct: The ubiquitarily 15N marked PDZ-domains of the proteins AF6; made in house
T2 sequence (P55196 1007-1093 limits assumed): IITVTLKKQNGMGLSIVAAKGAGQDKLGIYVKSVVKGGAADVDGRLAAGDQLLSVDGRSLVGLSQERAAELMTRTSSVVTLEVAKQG
Protocol: as §1, §2, §3, §4, §5, §6

[1] = biological target: T3, PDZ-domain of the protein AF6 (Homo sapiens, UniProt P55196); test: 15N-HSQC NMR binding assay (chemical shift comparison with and without test ligand); conditions: for binding to the PDZ-domain of the protein AF6 (binding / non-binding): 8 to 10-fold molar excess of test ligand, 50 μM protein; for binding of compound with singly bound R3 compared with the doubly bound equivalent: singly vs doubly bound residue R3; for binding site occupation from backbone amide chemical shifts, compared with compound 1: 8 to 10-fold ligand excess, FIG. 8
T3 construct: The ubiquitarily 15N marked PDZ-domains of the proteins AF6; made in house
T3 sequence (P55196 1007-1093 limits assumed): T2 sequence (P55196 1007-1093 limits assumed)
Text: The chemical shifts are split up into the 2 categories “large (bold italics)” and “small (normal letters)”. From the shown amino acid residues, the binding site of a compound on the protein can be determined by color-highlighting the backbone amide atoms of this amino acid residues in the 3D protein structure of Table 1 and creating the largest common cut set of all these atoms on the protein surface.

| Structure (SMILES) | binding to the PDZ-domain of the protein AF6 (binding / non-binding) [1] | also measured |
| --- | --- | --- |
| O=C1NC(=S)SC1Cc1ccc(C(F)(F)F)cc1 (centres unmarked) [Compound 1] | show a binding; also recorded: particularly strong activity | Kd (PDZ-domain of Syntrophin): 239 ± 12 µM; Kd (PDZ-domain of AF6): 101 µM; binding of compound with singly bound R3 compared with the doubly bound equivalent [1]: stronger binding |
| O=C1NC(=S)SC1Cc1ccc(Br)cc1 (centres unmarked) [Compound 2] | particularly strong activity |  |
| O=C1NC(=S)SC1Cc1ccccc1 (centres unmarked) [Compound 3] | show a binding |  |
| O=C1NC(=S)SC1Cc1ccoc1 (centres unmarked) [Compound 4] | show a binding |  |
| O=C1NC(=S)SC1Cc1ccsc1 (centres unmarked) [Compound 5] | show a binding |  |
| CC(c1ccc(C(F)(F)F)cc1)C1SC(=S)NC1=O (centres unmarked) [Compound 6] | particularly strong activity |  |
| O=C1NC(=O)C(Cc2ccc(C(F)(F)F)cc2)S1 (centres unmarked) [Compound 7] | particularly strong activity | Kd (PDZ-domain of Syntrophin): 330 ± 17 µM; Kd (PDZ-domain of AF6): 280 ± 22 µM |
| O=C1NC(=S)SC1=Cc1ccc(C(F)(F)F)cc1 [Compound 9] | binding; also recorded: particularly strong activity |  |
| O=C1NC(=S)SC1=Cc1ccsc1 [Compound 13] | binding |  |
| O=C1NC(=S)SC1=Cc1cccc(C(F)(F)F)c1 [Compound 14] | binding |  |
| CC(C)C=C1SC(=O)NC1=O [Compound 21] | show a binding | binding site occupation from backbone amide chemical shifts, compared with compound 1 [1]: missing occupation of the partial binding site of the trifluoromethylphenyl residue |
| O=C1NC(=S)SC1Cc1cccc(C(F)(F)F)c1 (centres unmarked) [Compound 26] |  | binding of compound with singly bound R3 compared with the doubly bound equivalent [1]: weaker binding |
| O=C1NC(=S)SC1=Cc1c[nH]c2ccccc12 [Compound 29] | non-binding; also recorded: do not show any binding |  |
| O=C1NC(=S)SC1=Cc1ccc(-c2ccccc2)cc1 [Compound 30] | non-binding; also recorded: do not show any binding |  |
| CN1C(=O)C(=Cc2ccc(C(F)(F)F)cc2)SC1=S [Compound 31] | non-binding |  |
| CN1C(=O)C(=Cc2cccc(C(F)(F)F)c2)SC1=S [Compound 32] | non-binding |  |
| NC1=NC(=O)C(=Cc2ccsc2)S1 [Compound 38] | non-binding |  |
| CN(C)CCN=C1NC(=O)C(=Cc2ccc(C(F)(F)F)cc2)S1 [Compound 39] | non-binding |  |
| O=C1NC(=NCCCc2ccccc2)SC1=Cc1ccc(C(F)(F)F)cc1 [Compound 40] | non-binding |  |
| O=C(O)c1cc2cc(Br)ccc2c(Br)c1O [Compound 41] |  | Kd (PDZ-domain of AF6): 419 ± 30 µM |
| O=C(O)c1cccc([N+](=O)[O-])c1O [Compound 46] |  | binding site occupation from backbone amide chemical shifts, compared with compound 1 [1]: does not or only insufficiently occupy the binding sites L25 to V28 and S75 to T91 |
| O=c1[nH]c2c(Cl)c(Cl)c(Cl)cc2o1 [II] |  | Kd (PDZ-domain of Syntrophin): 398 ± 32 µM; Kd (PDZ-domain of AF6): 480 ± 33 µM |
